Results from patent US20100022584A1, “Modulation of Glutamine Synthetase Activity” (priority 2006, published 2010).
Positions count from the first letter of the chain named.

What was measured:
Assay in all cases: HPLC forward-reaction glutamine synthetase assay with serine protease inhibitors
Assay type in all cases: biochemical, E. coli
[1] = molecular target: T1, adenylylated WT enzyme, WT (AD) glutamine synthetase (Escherichia coli, UniProt P0A9C5); conditions: 1 mM inhibitor; for % Reduction in ADP-based Specific Activity / % Reduction in Glutamine-based Specific Activity / % Conversion: WT (AD); for % Reduction in ADP-based Specific Activity / % Reduction in Glutamine-based Specific Activity: 60 min pre-incubation, vs no-inhibitor control, positive = activity increased; for % Conversion: glutamine-based divided by ADP-based specific activity; for inhibition of the enzyme (in words): adenylylated WT enzyme, HPLC assays
T1 construct: made in house; host or cells: E. coli carrying pBSK-ECgln (pBluescript II SK+), continuous culture; YMC11 is the expression strain named for this plasmid
T1 sequence (P0A9C5 2-469 limits assumed): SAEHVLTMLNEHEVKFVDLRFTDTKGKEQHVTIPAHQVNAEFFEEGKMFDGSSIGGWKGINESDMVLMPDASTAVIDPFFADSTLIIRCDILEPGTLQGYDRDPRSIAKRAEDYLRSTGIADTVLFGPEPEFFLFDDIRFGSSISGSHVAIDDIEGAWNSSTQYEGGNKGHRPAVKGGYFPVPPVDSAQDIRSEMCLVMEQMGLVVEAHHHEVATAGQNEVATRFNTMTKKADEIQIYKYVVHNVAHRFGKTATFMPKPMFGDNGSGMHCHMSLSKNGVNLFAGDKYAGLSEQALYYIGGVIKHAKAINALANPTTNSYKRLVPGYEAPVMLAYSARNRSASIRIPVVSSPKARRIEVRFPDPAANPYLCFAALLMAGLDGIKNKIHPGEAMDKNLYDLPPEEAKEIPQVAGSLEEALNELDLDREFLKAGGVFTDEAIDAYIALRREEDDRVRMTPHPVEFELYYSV
Procedure: (§1) This assay was set up to measure glutamine synthetase activity according to the forward reaction, and measures the amount of glutamine formed from […] of L-glutamate in the presence of MnCO3-ATP (the basis of one reaction) and MgATP (the basis of a second reaction). In addition, the amount of ADP formed is also measured in a separate assay, using the same reagents.
(§2) All enzyme preparations were adjusted to the same concentration of protein, and added to the assay mixture in a volume of 50 μl. The addition of the enzyme started the reaction, which was then allowed to proceed for 1 hour. The reaction was stopped by the addition of 6 μl of a 50% solution of trichloroacetic acid. Each assay was then aliquoted into 4 HPLC vials (150 μl per vial), two of which were assayed for glutamate and glutamine using a Phenomenex Luna 5 μC18 Column on an Agilent 100 HPLC instrument. The ATP/ADP assays were run on a Chromolith Performance RP-18c column also using an Agilent 100 HPLC instrument.
(§3) As it is believed that two putative catalytic triads, similar to those in the serine proteases, are involved in the reaction mechanism of glutamine synthetase, certain of the mutants were also assayed by HPLC in the presence of the serine protease inhibitors, AEBSF and PMSF, in order to assess the effect that these inhibitors had on the enzyme. The enzymes assessed were the adenylylated WT enzyme, the deadenylylated WT enzyme, and the mutant enzymes S52A, S52A Y397V, S53A, S53A Y397V, S52A S53A and S52A S53A Y397V. The enzymes were pre-incubated for 60 minutes in the presence of 1 mM PMSF or 1 mM AEBSF. A control reaction was set up for each enzyme, which contained no inhibitor. Each enzyme was then added to assays set up as described above. The assay was allowed to proceed for 60 minutes, then stopped by the addition of […] of 50% TCA, after which they were analysed by HPLC. All assays were run in triplicate.
(§4) In addition to the γ-glutamyl transferase assays, assays were also developed to measure the rate of conversion of ATP and glutamate to ADP and glutamine by HPLC. These were set up as single assays but analysed separately for glutamate and glutamine and ATP and ADP. The conversion rates for glutamate to glutamine, in both the presence of Mn^2+ and Mg^2+ by glutamine synthetase, is referred to as the […] specific activity and is presented in μmoles/min/mg protein. The conversion rates for ATP to ADP, in both the presence of Mn^2+ and Mg^2+ by glutamine synthetase, is referred to as the ADP-based specific activity and is presented in μmoles/min/mg protein. The percentage of conversion was also calculated by dividing the glutamine-based specific activity by the ADP-based specific activity, and this value is interpreted as the ability of the enzyme to complete both steps of the reaction, i.e., glutamate to glutamine and ATP to ADP, at an equivalent level of efficiency.

[2] = molecular target: T2, glutamine synthetase mutant S52A Y397V (Escherichia coli, UniProt P0A9C5, S53A/Y398V); conditions: 1 mM inhibitor; for inhibition of the enzyme (in words): HPLC assays; for % Conversion: glutamine-based divided by ADP-based specific activity
T2 construct: made in house; host or cells: E. coli YMC11 (glutamine synthetase auxotroph), pBluescript II SK+
T2 sequence (P0A9C5 2-469 S53A/Y398V limits assumed): T1 sequence (P0A9C5 2-469 limits assumed) with S52A, Y397V
Procedure: as §1, §2, §3, §4

[3] = molecular target: T3, glutamine synthetase mutant Y397V (Escherichia coli, UniProt P0A9C5, Y398V); conditions: 1 mM inhibitor; for inhibition of the enzyme (in words): HPLC assays; for % Conversion: glutamine-based divided by ADP-based specific activity
T3 construct: made in house; host or cells: E. coli YMC11 (glutamine synthetase auxotroph), pBluescript II SK+
T3 sequence (P0A9C5 2-469 Y398V limits assumed): T1 sequence (P0A9C5 2-469 limits assumed) with Y397V

Compound | % Reduction in ADP-based Specific Activity ([1]; Mg assay) | % Reduction in Glutamine-based Specific Activity ([1]; Mg assay) [%] | % Conversion ([1]; Mg assay) [%] | % Reduction in ADP-based Specific Activity ([1]; Mn assay) [%] | % Reduction in Glutamine-based Specific Activity ([1]; Mn assay) [%] | % Conversion ([1]; Mn assay) [%] | inhibition of the enzyme (in words) [1] | inhibition of the enzyme (in words) [2] | % Conversion ([2]; Mn assay) [%] | inhibition of the enzyme (in words) [3] | % Conversion ([3]; Mg assay) [%] | % Conversion ([3]; Mn assay) [%] | % Conversion ([2]; Mg assay) [%]
NCCc1ccc(S(=O)(=O)F)cc1 [AEBSF] | −34.60% | −24.59 | 134 | −26.76 | −14.86 | 118 | appeared to cause inhibition | appeared to cause inhibition | 85 | appeared to cause inhibition | 107 | 108 | 
O=S(=O)(F)Cc1ccccc1 [PMSF] | +48.13% | −46.33 | 42 | −15.63 | −49.20 | 61 | found to inhibit | found to inhibit | 67 | found to inhibit | 78 | 61 | 49
